According to PubChem BioAssay (NCI):
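Test compounds were applied to cells in 96-well plates for 48 hours at 5 doses. GI50: concentration for 50% inhibition of growth. The concentration for full growth arrest is given as TGI.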

Key:
Test in all cases: growth of human tumour cells (NCI), 48 h
SR leukemia = test system: SR leukemia
CCRF-CEM leukemia = test system: CCRF-CEM leukemia
OVCAR-5 ovarian = test system: OVCAR-5 ovarian
SK-MEL-5 melanoma = test system: SK-MEL-5 melanoma
HCC-2998 colon = test system: HCC-2998 colon
COLO 205 colon = test system: COLO 205 colon
EKVX NSCLC = test system: EKVX NSCLC
A549 NSCLC = test system: A549 NSCLC
UACC-257 melanoma = test system: UACC-257 melanoma
HCT-15 colon = test system: HCT-15 colon

SMILES	GI50 (SR leukemia)	TGI (SR leukemia)	GI50 (CCRF-CEM leukemia)	TGI (CCRF-CEM leukemia)	GI50 (OVCAR-5 ovarian)	TGI (OVCAR-5 ovarian)	GI50 (SK-MEL-5 melanoma)	TGI (SK-MEL-5 melanoma)	GI50 (HCC-2998 colon)	TGI (HCC-2998 colon)	GI50 (COLO 205 colon)	TGI (COLO 205 colon)	GI50 (EKVX NSCLC)	TGI (EKVX NSCLC)	GI50 (A549 NSCLC)	TGI (A549 NSCLC)	GI50 (UACC-257 melanoma)	TGI (UACC-257 melanoma)	GI50 (HCT-15 colon)	TGI (HCT-15 colon)
Cc1nnn[n-]1.N.N.N.N.N.[Cl-].[Co+3]	> 100 µM	> 100 µM	> 100 µM	> 100 µM	> 100 µM	> 100 µM	1.86 µM	10.7 µM	> 100 µM	> 100 µM	> 100 µM	> 100 µM	> 100 µM	> 100 µM	> 100 µM	> 100 µM	> 100 µM	> 100 µM		
C[C@H](NC(=O)[C@@H](C)N)[C@H](Oc1ccc2c(cnn2-c2ccc(F)cc2)c1)c1ccc2c(c1)OCCO2	2.03 µM	5.24 µM	1.49 µM	4.6 µM	2.29 µM	7.11 µM	1.52 µM	2.94 µM	1.78 µM	3.66 µM	1.83 µM	3.61 µM	1.04 µM	12.1 µM	1.36 µM	12.6 µM	1.94 µM	3.61 µM	1.98 µM	4.44 µM
COc1cc(/C=C\c2cc(OC)c(OC)c(OC)c2)cc(NC(=O)/C=C/c2cc(OC)c(OC)c(OC)c2)c1OC	0.23 µM	> 100 µM	2.67 µM	> 100 µM	> 100 µM	> 100 µM	1.66 µM	3.97 µM	> 100 µM	> 100 µM	4.2 µM	> 100 µM	15.7 µM	> 100 µM	4.49 µM	> 100 µM	10.1 µM	> 100 µM	5.51 µM	> 100 µM
CCN(Cc1ccc(Cl)cc1)c1ccc(CO)c(Cl)c1	17.7 µM	51.5 µM	9.96 µM	45.6 µM	0.258 µM	2.04 µM	2.58 µM	13.2 µM	7.7 µM	21.9 µM	2.2 µM	8.57 µM	12.4 µM	29.1 µM	1.35 µM	14.3 µM	0.145 µM	0.512 µM	3.52 µM	19.8 µM
C=C1C(=O)O[C@@H]2C[C@@H](C)[C@@H]3C=CC(=O)[C@@]3(C)[C@@H](O)[C@H]12		2.65 µM		2.05 µM		3.37 µM		2.67 µM		2.85 µM		5.11 µM		8.89 µM		11.8 µM		3.09 µM		9.54 µM
O=C(O)C1=C(O)C(C(=O)O)C23CCCCCCCCCCC12C(C(=O)O)C(O)=C3C(=O)O (centres undefined)		> 100 µM		> 100 µM		> 100 µM		> 100 µM		> 100 µM		> 100 µM		> 100 µM		> 100 µM		> 100 µM		> 100 µM
Oc1c(-c2nnc(-c3ccccc3Cl)o2)sc2nnc(-c3ccccc3)c(-c3ccccc3)c12	3.96 µM	> 100 µM	1.43 µM	> 100 µM	7.48 µM	> 100 µM	5.99 µM	19.8 µM	5.05 µM	> 100 µM	4.4 µM	> 100 µM	3.1 µM	32.2 µM	4.31 µM	61.5 µM	8.09 µM	62.7 µM	0.813 µM	> 100 µM
O=C(COc1ccc(Cl)cc1)N1N=C(c2ccc(Cl)cc2)CC1(O)c1ccccc1 (centres undefined)		17.7 µM		> 100 µM		45.3 µM		29.3 µM		> 100 µM		54.6 µM		91.4 µM		34.7 µM		44.3 µM		> 58.1 µM
N=C1C(c2nc3ccccc3s2)=C(O)CN1c1ccc(F)c(Cl)c1	0.666 µM	6.33 µM	36.8 µM	> 100 µM	35.9 µM	> 100 µM	14.6 µM	49.5 µM	61.7 µM	> 100 µM	> 100 µM	> 100 µM	48.5 µM	> 100 µM	11.2 µM	62.2 µM	22.9 µM	> 100 µM	0.999 µM	> 100 µM
COC12C=C/C(=C(/C(=O)OCc3cncnc3)C(=O)CCCCCCCCC3(OC)C=C/C(=C(/C(=O)OCc4cncnc4)C(=O)CCCCCCCC1)O3)O2	0.155 µM	6.61 µM	0.196 µM	3.79 µM	0.783 µM	2.03 µM			0.821 µM	1.61 µM	0.587 µM	2.25 µM	0.717 µM	2.39 µM	0.848 µM	2.24 µM	0.937 µM	2.94 µM	0.308 µM	1.34 µM
C=C(CN1C(=O)CN(C)C1=O)c1ccc(C(=O)Nc2ccccc2N)cc1	1.41 µM	10.7 µM	11.6 µM	87.3 µM	3.56 µM	85.2 µM	12.2 µM	32.8 µM	22 µM	54.3 µM	9.24 µM	44.8 µM	82.3 µM	> 100 µM	25.4 µM	> 100 µM	5.89 µM	30.4 µM	40.9 µM	> 100 µM
NC(=O)C(=O)N/N=C1\C(=O)N(c2ccc(Cl)cc2Cl)C(=O)C1C(=O)Nc1ccc(Cl)cc1Cl (centres undefined)		> 100 µM		> 100 µM		> 100 µM		> 100 µM		> 100 µM		> 100 µM		> 100 µM		> 100 µM		> 100 µM		> 100 µM
CNC(=O)Nc1nc2ccc([N+](=O)[O-])cc2[nH]1		> 100 µM		> 100 µM		> 100 µM		> 100 µM		> 100 µM		> 100 µM		> 100 µM		> 100 µM		> 100 µM		> 100 µM
NS(=O)(=O)c1ccc(-n2nc(-c3ccc(Cl)cc3)cc2-c2cc(O)ccc2O)cc1	3.85 µM	> 100 µM	3.14 µM	66.6 µM	15.7 µM	31.1 µM	15.2 µM	32.3 µM	17.2 µM	31.2 µM			22.6 µM	45.6 µM	12.2 µM	30.4 µM	11.1 µM	25.6 µM	6.28 µM	19.2 µM
